The record followed here is ChEMBL document CHEMBL1157266, “A cyclopeptide from the Insect pathogenic fungus Cordyceps sp. BCC 1788” (J Nat Prod, 2006).

For one experiment, the system named is Plasmodium falciparum. Briefly: Antimalarial activity against Plasmodium falciparum K1 by [3H]hypoxanthine uptake. Format: functional, organism-based.
For the next experiment, the system named is Vero. Briefly: Cytotoxicity against african green monkey Vero cells. Format: cell-based. Conditions: Chlorocebus sabaeus.

The structures appear in SMILES notation. Where a SMILES comes first, the peptide text is derived from it. [ ]: non-standard residue; d: D form. NMeY = CN[C@@H](Cc1ccc(O)cc1)C(=O)O; dNMeF = CN[C@H](Cc1ccccc1)C(=O)O; Sar = CNCC(=O)O

As a reminder, the IC50 is the concentration that inhibits the measured activity by half.

On to `CC[C@H](C)[C@@H]1NC(=O)[C@H](Cc2ccc(O)cc2)N(C)C(=O)[C@H](Cc2ccccc2)NC(=O)CN(C)C(=O)[C@@H]2CCCN2C(=O)[C@@H](Cc2ccccc2)N(C)C(=O)[C@H](CC(C)C)NC1=O` [CORDYHEPTAPEPTIDE A] (cyclo(F[NMeY]IL[dNMeF]P[Sar])), for which the IC50 in the experiment with Plasmodium falciparum was 5350 nM; in the experiment with Vero it was above 56900 nM.
Molecule `C[C@H]1[C@@H](O)O[C@@H]2O[C@@]3(C)CC[C@H]4[C@H](C)CC[C@@H]1[C@@]24OO3` [ARTENIMOL] showed an IC50 with Plasmodium falciparum of 6 nM.
Turning to `Cc1c2ccncc2c(C)c2c1[nH]c1ccccc12` [ELLIPTECINE], in the experiment on Vero, half-maximal inhibition (IC50) required 2440 nM.
